In ChEMBL document CHEMBL1909046, “DrugMatrix in vitro pharmacology data”:

Key:
[1] = DRUGMATRIX: Leukotriene, BLT (LTB4) radioligand binding (ligand: [3H]LTB4); assay type: cell membranes, Membrane; conditions: u-937; Not Active = under 50% inhibition at 10 µM
[2] = biological target: T1, Nitric oxide synthase, inducible (Mus musculus, UniProt P29477); parameters: species or system Escherichia coli;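 also: inhibition of iNOS enzyme activity measured with L-arginine as substrate; in other assays of this panel Not Active means under 50% inhibition at 10 µM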
T1 sequence (P29477 whole entry): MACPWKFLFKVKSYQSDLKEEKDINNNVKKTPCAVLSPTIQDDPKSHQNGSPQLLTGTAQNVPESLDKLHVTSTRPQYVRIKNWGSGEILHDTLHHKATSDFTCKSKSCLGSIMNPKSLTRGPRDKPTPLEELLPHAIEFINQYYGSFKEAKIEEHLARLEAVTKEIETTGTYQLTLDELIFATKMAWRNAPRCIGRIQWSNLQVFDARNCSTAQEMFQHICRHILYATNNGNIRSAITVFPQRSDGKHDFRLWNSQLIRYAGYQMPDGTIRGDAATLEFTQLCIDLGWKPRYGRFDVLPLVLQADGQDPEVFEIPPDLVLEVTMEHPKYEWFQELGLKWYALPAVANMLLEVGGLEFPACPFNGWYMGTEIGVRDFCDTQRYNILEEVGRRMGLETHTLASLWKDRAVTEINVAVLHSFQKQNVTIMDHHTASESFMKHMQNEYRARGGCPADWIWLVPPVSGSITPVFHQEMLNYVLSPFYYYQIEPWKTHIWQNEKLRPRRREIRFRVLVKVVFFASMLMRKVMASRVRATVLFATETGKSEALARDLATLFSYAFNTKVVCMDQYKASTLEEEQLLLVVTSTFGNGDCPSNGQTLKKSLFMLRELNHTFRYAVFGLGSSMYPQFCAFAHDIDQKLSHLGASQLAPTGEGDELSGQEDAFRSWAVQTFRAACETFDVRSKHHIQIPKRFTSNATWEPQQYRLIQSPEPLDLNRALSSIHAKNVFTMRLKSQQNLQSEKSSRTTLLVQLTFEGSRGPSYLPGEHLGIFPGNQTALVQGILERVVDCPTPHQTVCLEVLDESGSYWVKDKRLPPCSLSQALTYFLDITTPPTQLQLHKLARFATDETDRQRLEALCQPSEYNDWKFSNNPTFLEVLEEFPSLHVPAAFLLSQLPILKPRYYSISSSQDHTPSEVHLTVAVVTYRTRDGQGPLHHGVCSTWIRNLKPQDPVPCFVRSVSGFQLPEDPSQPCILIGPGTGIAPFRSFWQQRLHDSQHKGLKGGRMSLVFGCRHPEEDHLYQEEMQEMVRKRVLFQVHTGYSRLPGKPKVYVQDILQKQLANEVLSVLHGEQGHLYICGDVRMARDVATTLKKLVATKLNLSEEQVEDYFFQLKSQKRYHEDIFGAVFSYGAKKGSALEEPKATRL

Cytochrome P450 2C9 = Cytochrome P450 2C9 (Homo sapiens, UniProt P11712); conditions: bti-tn-5b1-4; also: in other assays of this panel Not Active means under 50% inhibition at 10 µM
[3] = biological target: Delta-type opioid receptor (Homo sapiens, UniProt P41143); assay type: cell membranes, HEK293, Membrane; conditions: hek293; also: in other assays of this panel Not Active means under 50% inhibition at 10 µM
Neutrophil elastase = biological target: T2, Neutrophil elastase (Homo sapiens, UniProt P08246); assay type: tissue-based;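 also: inhibition of neutrophil elastase enzyme activity, measured with a p-nitroanilide-linked peptide substrate; in other assays of this panel Not Active means under 50% inhibition at 10 µM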
T2 sequence (P08246 whole entry): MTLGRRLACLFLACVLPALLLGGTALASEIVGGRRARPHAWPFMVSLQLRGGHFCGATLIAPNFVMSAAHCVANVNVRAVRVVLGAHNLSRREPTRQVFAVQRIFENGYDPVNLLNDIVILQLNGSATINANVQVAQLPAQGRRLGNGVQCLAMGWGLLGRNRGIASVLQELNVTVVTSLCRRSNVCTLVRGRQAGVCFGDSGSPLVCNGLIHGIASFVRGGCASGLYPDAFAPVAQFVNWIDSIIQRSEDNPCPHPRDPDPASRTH

[4] = biological target: T3, Type-2 angiotensin II receptor (Homo sapiens, UniProt P50052); assay type: cell-based; conditions: cho-k1; also: in other assays of this panel Not Active means under 50% inhibition at 10 µM
T3 sequence (P50052 whole entry): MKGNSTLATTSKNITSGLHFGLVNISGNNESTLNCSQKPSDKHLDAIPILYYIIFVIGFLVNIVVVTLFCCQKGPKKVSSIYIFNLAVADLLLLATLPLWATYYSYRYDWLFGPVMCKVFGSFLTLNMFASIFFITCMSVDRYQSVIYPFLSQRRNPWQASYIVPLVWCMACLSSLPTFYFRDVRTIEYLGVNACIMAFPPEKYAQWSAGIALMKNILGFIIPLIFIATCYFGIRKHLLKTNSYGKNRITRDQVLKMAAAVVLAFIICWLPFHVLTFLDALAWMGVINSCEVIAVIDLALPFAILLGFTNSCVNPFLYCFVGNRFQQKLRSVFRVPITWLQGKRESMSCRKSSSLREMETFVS

[5] = DRUGMATRIX: Phosphodiesterase PDE4 enzyme inhibition (substrate: [3H]cAMP + cAMP); conditions: u-937; Not Active = under 50% inhibition at 10 µM

Sequence of Delta-type opioid receptor (P41143 whole entry): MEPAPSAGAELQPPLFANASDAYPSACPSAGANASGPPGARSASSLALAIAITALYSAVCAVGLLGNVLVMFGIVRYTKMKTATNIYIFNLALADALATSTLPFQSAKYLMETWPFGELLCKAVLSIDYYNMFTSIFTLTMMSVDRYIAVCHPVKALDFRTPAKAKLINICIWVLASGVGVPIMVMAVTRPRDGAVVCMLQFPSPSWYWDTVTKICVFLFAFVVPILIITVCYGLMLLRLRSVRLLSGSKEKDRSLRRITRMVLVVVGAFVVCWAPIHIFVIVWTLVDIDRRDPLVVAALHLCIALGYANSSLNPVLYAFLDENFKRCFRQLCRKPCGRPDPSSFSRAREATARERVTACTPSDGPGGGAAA
Sequence of Cytochrome P450 2C9 (P11712 whole entry): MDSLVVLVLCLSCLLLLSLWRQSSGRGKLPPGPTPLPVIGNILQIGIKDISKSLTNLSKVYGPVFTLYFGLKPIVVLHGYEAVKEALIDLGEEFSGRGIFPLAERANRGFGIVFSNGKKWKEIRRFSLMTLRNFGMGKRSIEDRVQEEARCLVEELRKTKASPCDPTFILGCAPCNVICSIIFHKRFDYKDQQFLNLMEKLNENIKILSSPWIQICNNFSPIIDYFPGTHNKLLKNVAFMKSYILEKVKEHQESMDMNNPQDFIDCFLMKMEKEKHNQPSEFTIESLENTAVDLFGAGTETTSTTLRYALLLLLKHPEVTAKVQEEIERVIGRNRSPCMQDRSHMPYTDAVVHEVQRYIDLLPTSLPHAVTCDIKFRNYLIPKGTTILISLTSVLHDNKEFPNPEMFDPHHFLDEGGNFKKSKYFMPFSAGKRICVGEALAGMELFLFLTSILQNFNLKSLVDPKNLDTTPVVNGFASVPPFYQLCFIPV

O=C(O)CO [GLYCOLIC ACID]
Not Active: IC50 [1] | Ki [1] | IC50 [2] | IC50 (Cytochrome P450 2C9) | Ki (Cytochrome P450 2C9) | IC50 [3] | IC50 (Neutrophil elastase) | IC50 [4] | IC50 [5] | Ki [5]

COC(=O)C[C@](O)(CCC(C)(C)O)C(=O)O[C@@H]1C(OC)=C[C@]23CCCN2CCc2cc4c(cc2[C@H]13)OCO4 [HARRINGTONINE]
Not Active: IC50 [1] | Ki [1] | IC50 [2] | IC50 (Cytochrome P450 2C9) | Ki (Cytochrome P450 2C9) | IC50 [3] | IC50 (Neutrophil elastase) | IC50 [4] | IC50 [5] | Ki [5]

CC(C)(c1ccc(O)cc1)c1ccc(O)cc1 [BISPHENOL A]
Not Active: IC50 [1] | Ki [1] | IC50 [2] | IC50 (Cytochrome P450 2C9) | Ki (Cytochrome P450 2C9) | IC50 [3] | IC50 (Neutrophil elastase) | IC50 [4] | IC50 [5] | Ki [5]

C=CCO [ALLYL ALCOHOL]
Not Active: IC50 [1] | Ki [1] | IC50 [2] | IC50 (Cytochrome P450 2C9) | Ki (Cytochrome P450 2C9) | IC50 [3] | IC50 (Neutrophil elastase) | IC50 [4] | IC50 [5] | Ki [5]

C[C@]12CC[C@@H](O)C[C@@H]1CC[C@@H]1[C@@H]2CC[C@]2(C)C(=O)CC[C@@H]12 [ANDROSTERONE]
Not Active: IC50 [1] | Ki [1] | IC50 [2] | IC50 (Cytochrome P450 2C9) | Ki (Cytochrome P450 2C9) | IC50 [3] | IC50 (Neutrophil elastase) | IC50 [4] | IC50 [5] | Ki [5]

CC(CN1c2ccccc2Sc2ccccc21)N(C)C (stereo not drawn) [PROMETHAZINE]
Not Active: IC50 [1] | Ki [1] | IC50 [2] | IC50 (Cytochrome P450 2C9) | Ki (Cytochrome P450 2C9) | IC50 [3] | IC50 (Neutrophil elastase) | IC50 [4] | IC50 [5] | Ki [5]

C[N+](C)(C)CCOP(=O)([O-])OC[C@H](O)CO
Not Active: IC50 [1] | Ki [1] | IC50 [2] | IC50 (Cytochrome P450 2C9) | Ki (Cytochrome P450 2C9) | IC50 [3] | IC50 (Neutrophil elastase) | IC50 [4] | IC50 [5] | Ki [5]

NCC(CC(=O)O)c1ccc(Cl)cc1 (stereo not drawn) [BACLOFEN]
Not Active: IC50 [1] | Ki [1] | IC50 [2] | IC50 (Cytochrome P450 2C9) | Ki (Cytochrome P450 2C9) | IC50 [3] | IC50 (Neutrophil elastase) | IC50 [4] | IC50 [5] | Ki [5]

CC12CCC(CC1=O)C2(C)C (stereo not drawn) [CAMPHOR]
Not Active: IC50 [1] | Ki [1] | IC50 [2] | IC50 (Cytochrome P450 2C9) | Ki (Cytochrome P450 2C9) | IC50 [3] | IC50 (Neutrophil elastase) | IC50 [4] | IC50 [5] | Ki [5]

POVIDONE
Not Active: IC50 [1] | Ki [1] | IC50 [2] | Ki [2] | IC50 (Cytochrome P450 2C9) | Ki (Cytochrome P450 2C9) | IC50 [3] | Ki [3] | IC50 (Neutrophil elastase) | Ki (Neutrophil elastase) | IC50 [4] | Ki [4] | IC50 [5] | Ki [5]

CN(Cc1cc(Br)cc(Br)c1N)C1CCCCC1 [BROMHEXINE]
Not Active: IC50 [1] | Ki [1] | IC50 [2] | IC50 (Cytochrome P450 2C9) | Ki (Cytochrome P450 2C9) | IC50 [3] | IC50 (Neutrophil elastase) | IC50 [4] | IC50 [5] | Ki [5]

Cc1ccnc2c1NC(=O)c1cccnc1N2C1CC1 [NEVIRAPINE]
Not Active: IC50 [1] | Ki [1] | IC50 [2] | IC50 (Cytochrome P450 2C9) | Ki (Cytochrome P450 2C9) | IC50 [3] | IC50 (Neutrophil elastase) | IC50 [4] | IC50 [5] | Ki [5]

CCN1CCN(C(=O)N[C@@H](C(=O)N[C@@H]2C(=O)N3[C@@H]2SC(C)(C)[C@@H]3C(=O)O)c2ccccc2)C(=O)C1=O [PIPERACILLIN]
Not Active: IC50 [1] | Ki [1] | IC50 [2] | IC50 (Cytochrome P450 2C9) | Ki (Cytochrome P450 2C9) | IC50 [3] | IC50 (Neutrophil elastase) | IC50 [4] | IC50 [5] | Ki [5]

O=C(O)c1ccccc1 [BENZOIC ACID]
Not Active: IC50 [1] | Ki [1] | IC50 [2] | IC50 (Cytochrome P450 2C9) | Ki (Cytochrome P450 2C9) | IC50 [3] | IC50 (Neutrophil elastase) | IC50 [4] | IC50 [5] | Ki [5]

c1ccc2c(c1)Nc1ccccc1S2 [PHENOTHIAZINE]
Not Active: IC50 [1] | Ki [1] | IC50 [2] | IC50 (Cytochrome P450 2C9) | Ki (Cytochrome P450 2C9) | IC50 [3] | IC50 (Neutrophil elastase) | IC50 [4] | IC50 [5] | Ki [5]

CHROMIC CHLORIDE
Not Active: IC50 [1] | Ki [1] | IC50 [2] | Ki [2] | IC50 (Cytochrome P450 2C9) | Ki (Cytochrome P450 2C9) | IC50 [3] | Ki [3] | IC50 (Neutrophil elastase) | Ki (Neutrophil elastase) | IC50 [4] | Ki [4] | IC50 [5] | Ki [5]

Cl.NC[C@H]1CC[C@H](C(=O)Oc2ccc(CCC(=O)O)cc2)CC1 [CETRAXATE HYDROCHLORIDE]
Not Active: IC50 [1] | Ki [1] | IC50 [2] | IC50 (Cytochrome P450 2C9) | Ki (Cytochrome P450 2C9) | IC50 [3] | IC50 (Neutrophil elastase) | IC50 [4] | IC50 [5] | Ki [5]

O=c1[nH]c2ccccc2c2ccccc12
Not Active: IC50 [1] | Ki [1] | IC50 [2] | IC50 (Cytochrome P450 2C9) | Ki (Cytochrome P450 2C9) | IC50 [3] | IC50 (Neutrophil elastase) | IC50 [4] | IC50 [5] | Ki [5]

C[C@H](C(=O)O)c1ccc2oc(-c3ccc(F)cc3)nc2c1 [FLUNOXAPROFEN]
Not Active: IC50 [1] | Ki [1] | IC50 [2] | IC50 (Cytochrome P450 2C9) | Ki (Cytochrome P450 2C9) | IC50 [3] | IC50 (Neutrophil elastase) | IC50 [4] | IC50 [5] | Ki [5]

C[N+](C)(C)CCOC(N)=O.[Cl-] [CARBACHOL]
Not Active: IC50 [1] | Ki [1] | IC50 [2] | IC50 (Cytochrome P450 2C9) | Ki (Cytochrome P450 2C9) | IC50 [3] | IC50 (Neutrophil elastase) | IC50 [4] | IC50 [5] | Ki [5]

O=C(O)CCc1nc(-c2ccccc2)c(-c2ccccc2)o1 [OXAPROZIN]
Not Active: IC50 [1] | Ki [1] | IC50 [2] | IC50 (Cytochrome P450 2C9) | Ki (Cytochrome P450 2C9) | IC50 [3] | IC50 (Neutrophil elastase) | IC50 [4] | IC50 [5] | Ki [5]
